Results published in patent publication US20230265151A1, “GIP/GLP1 CO-AGONIST COMPOUNDS” (priority 2020, published 2023).
Where two headings read alike, the source gives them in different places.

Legend:
hGIPR = biological target: T1, hGIPR (Homo sapiens, UniProt P48546); assay: Functional cAMP formation (HTRF) in HEK-293 clonal cells expressing hGIPR, 0.1% bovine casein, without or with 1.0% human serum albumin; format: cell-based; details: for EC50: geometric mean, read-out: hGIPR EC50, nM (SEM, n); for Emax: read-out: hGIPR Emax, % ± SEM
T1 construct: expressed in transfected cells
T1 sequence (P48546 22-466): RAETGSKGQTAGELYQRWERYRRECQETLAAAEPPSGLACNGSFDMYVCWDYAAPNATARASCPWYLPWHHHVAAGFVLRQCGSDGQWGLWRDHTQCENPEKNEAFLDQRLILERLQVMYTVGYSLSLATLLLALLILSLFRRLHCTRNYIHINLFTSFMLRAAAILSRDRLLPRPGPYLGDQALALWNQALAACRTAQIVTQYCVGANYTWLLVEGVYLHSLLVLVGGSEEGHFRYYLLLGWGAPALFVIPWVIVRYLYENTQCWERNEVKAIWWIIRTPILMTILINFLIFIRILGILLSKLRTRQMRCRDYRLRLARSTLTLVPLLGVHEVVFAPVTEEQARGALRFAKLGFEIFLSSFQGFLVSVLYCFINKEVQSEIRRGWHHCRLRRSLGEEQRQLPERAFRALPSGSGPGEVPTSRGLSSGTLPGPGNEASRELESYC
How it was run: (§1)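 Cells were stimulated with peptide for 30 min at 37° C, then lysed in buffer carrying cAMP-d2 and anti-cAMP Eu3+-cryptate for a competitive HTRF read after at least 60 min at room temperature. The 665/620 nm ratio was converted to nM cAMP against a standard curve.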

[1] = biological target: T2, human Gcg receptor (hGcgR) (Homo sapiens, UniProt P47871); assay: [125I]-Glucagon binding, SPA with membranes of HEK293 cells expressing hGcgR; details: human GcgR; geometric mean (SEM, n); read-out: Binding Affinity Ki, nM (SEM, n) hGCGR
T2 construct: expressed in transfected cells; crude membranes

hGCGR = biological target: T3, hGCGR (Homo sapiens, UniProt P47871); assay: Functional cAMP formation (HTRF) in HEK-293 clonal cells expressing hGCGR, 0.1% bovine casein, without or with 1.0% human serum albumin; format: cell-based; details: geometric mean, read-out: hGCGR EC50, nM (SEM, n)
T3 construct: expressed in transfected cells
How it was run: as §1

hGLP-1R = hGLP-1R (Homo sapiens, UniProt P43220); assay: Functional cAMP formation (HTRF) in HEK-293 clonal cells expressing hGLP-1R, 0.1% bovine casein, without or with 1.0% human serum albumin; format: cell-based; parameters: expressed in transfected cells; details: for EC50: geometric mean, read-out: hGLP-1R EC50, nM (SEM, n); for Emax: read-out: hGLP-1R Emax, % ± SEM
How it was run: as §1

[2] = 0.1% bovine casein and 1.0% human serum albumin, 37° C.
[3] = HEK293, 0.1% bovine casein and 1.0% human serum albumin, 37° C., percent of maximal response to GIP(1-42)NH2
[4] = cAMP, incubated at 37° C., 0.1% bovine casein (no human serum albumin)
[5] = HEK293, 0.1% bovine casein and 1.0% human serum albumin, 37° C., percent of maximal response to GLP-1(7-36)NH2
[6] = HEK293, percent of maximal response to GIP(1-42)NH2, 37° C., 0.1% bovine casein, arithmetic mean
[7] = HEK293, percent of maximal response to GLP-1(7-36)NH2, 37° C., 0.1% bovine casein, arithmetic mean

Chain of hGLP-1R (P43220 24-463): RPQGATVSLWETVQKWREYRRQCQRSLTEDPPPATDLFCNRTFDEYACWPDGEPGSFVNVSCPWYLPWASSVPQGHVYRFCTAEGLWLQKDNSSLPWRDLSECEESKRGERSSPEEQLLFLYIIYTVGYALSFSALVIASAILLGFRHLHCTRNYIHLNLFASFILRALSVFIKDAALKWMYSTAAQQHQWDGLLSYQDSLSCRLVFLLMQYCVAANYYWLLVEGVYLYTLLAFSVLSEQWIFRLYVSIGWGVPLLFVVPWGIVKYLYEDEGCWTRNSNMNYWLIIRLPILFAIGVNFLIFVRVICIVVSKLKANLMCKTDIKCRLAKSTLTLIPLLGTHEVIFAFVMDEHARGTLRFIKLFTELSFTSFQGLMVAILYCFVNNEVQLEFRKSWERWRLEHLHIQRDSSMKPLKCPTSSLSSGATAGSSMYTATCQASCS
T2 sequence (P47871 26-477): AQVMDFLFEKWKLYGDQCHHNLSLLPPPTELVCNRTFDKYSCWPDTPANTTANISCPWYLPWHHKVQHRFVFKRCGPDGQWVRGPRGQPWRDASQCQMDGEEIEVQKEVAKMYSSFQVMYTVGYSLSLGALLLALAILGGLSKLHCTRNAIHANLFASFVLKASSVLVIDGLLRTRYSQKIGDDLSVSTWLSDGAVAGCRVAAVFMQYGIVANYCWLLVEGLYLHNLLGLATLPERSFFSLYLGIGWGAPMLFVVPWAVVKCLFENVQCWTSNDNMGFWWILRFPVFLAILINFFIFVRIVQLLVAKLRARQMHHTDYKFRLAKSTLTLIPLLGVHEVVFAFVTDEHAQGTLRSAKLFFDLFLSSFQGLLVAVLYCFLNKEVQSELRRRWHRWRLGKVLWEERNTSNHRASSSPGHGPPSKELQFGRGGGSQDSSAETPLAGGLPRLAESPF
T3 sequence (P47871 26-477): as above

Structure (SMILES)	EC50 (hGIPR; [2]) [nM]	Emax (hGIPR; [3]) [%]	EC50 (hGIPR; [4]) [nM]	Ki [1] [nM]	EC50 (hGCGR; [2]) [nM]	EC50 (hGCGR; [4]) [nM]	EC50 (hGLP-1R; [2]) [nM]	EC50 (hGLP-1R; [4]) [nM]	Emax (hGLP-1R; [5]) [%]	Emax (hGIPR; [6]) [%]	Emax (hGLP-1R; [7]) [%]
CC[C@H](C)[C@H](NC(=O)[C@H](CC(C)C)NC(=O)[C@](C)(Cc1ccc(O)cc1)NC(=O)[C@@H](CCC(=O)O)NC(=O)[C@@H](NC(=O)[C@H](Cc1ccccc1)NC(=O)[C@H](CCC(=O)O)NC(=O)C(C)(C)NC(=O)[C@H](CCC(N)=O)NC(=O)[C@H](C)NC(=O)[C@H](CCCCNC(=O)CC[C@H](NC(=O)COCCOCCNC(=O)COCCOCCNC(=O)CCCCCCCCCCCCC(=O)O)C(=O)O)NC(=O)[C@H](CCCN)NC(=O)[C@H](CC(=O)O)NC(=O)[C@H](CC(C)C)NC(=O)[C@](C)(CC(C)C)NC(=O)[C@@H](NC(=O)[C@H](CO)NC(=O)[C@H](Cc1ccncc1)NC(=O)[C@H](CC(=O)O)NC(=O)[C@H](CO)NC(=O)[C@@H](NC(=O)[C@](C)(Cc1ccccc1F)NC(=O)[C@@H](NC(=O)CNC(=O)[C@H](CCC(=O)O)NC(=O)C(C)(C)NC(=O)[C@@H](N)Cc1ccc(O)cc1)[C@@H](C)O)[C@@H](C)O)[C@@H](C)CC)[C@@H](C)CC)C(=O)N[C@@H](CCC(=O)O)C(=O)NCC(=O)NCC(=O)N[C@@H](CCCCNC(=O)CC[C@H](NC(=O)COCCOCCNC(=O)COCCOCCNC(=O)CCCCCCCCCCCCC(=O)O)C(=O)O)C(=O)N[C@@H](CO)C(=O)N[C@@H](CO)C(=O)NCC(=O)N[C@@H](C)C(=O)N1CCC[C@H]1C(=O)N1CCC[C@H]1C(=O)N1CCC[C@H]1C(=O)N[C@@H](CO)C(N)=O [Example 41]	0.405	88.5 ± 0.638	0.0108	> 957	> 9950	> 9950	27.2	0.691			
CC[C@H](C)[C@H](NC(=O)[C@H](CC(C)C)NC(=O)[C@](C)(Cc1ccc(O)cc1)NC(=O)[C@@H](CCC(=O)O)NC(=O)[C@@H](NC(=O)[C@H](Cc1ccccc1)NC(=O)[C@H](CCC(=O)O)NC(=O)C(C)(C)NC(=O)[C@H](CCC(N)=O)NC(=O)[C@H](C)NC(=O)[C@H](CCCCNC(=O)COCCOCCNC(=O)CC[C@H](NC(=O)COCCOCCNC(=O)CCCCCCCCCCCCC(=O)O)C(=O)O)NC(=O)[C@H](CCCN)NC(=O)[C@H](CC(=O)O)NC(=O)[C@H](CC(C)C)NC(=O)[C@](C)(CC(C)C)NC(=O)[C@@H](NC(=O)[C@H](CO)NC(=O)[C@H](Cc1ccncc1)NC(=O)[C@H](CC(=O)O)NC(=O)[C@H](CO)NC(=O)[C@@H](NC(=O)[C@](C)(Cc1ccccc1F)NC(=O)[C@@H](NC(=O)CNC(=O)[C@H](CCC(=O)O)NC(=O)C(C)(C)NC(=O)[C@@H](N)Cc1ccc(O)cc1)[C@@H](C)O)[C@@H](C)O)[C@@H](C)CC)[C@@H](C)CC)C(=O)N[C@@H](CCC(=O)O)C(=O)NCC(=O)NCC(=O)N[C@@H](CCCCNC(=O)COCCOCCNC(=O)CC[C@H](NC(=O)COCCOCCNC(=O)CCCCCCCCCCCCC(=O)O)C(=O)O)C(=O)N[C@@H](CO)C(=O)N[C@@H](CO)C(=O)NCC(=O)N[C@@H](C)C(=O)N1CCC[C@H]1C(=O)N1CCC[C@H]1C(=O)N1CCC[C@H]1C(=O)N[C@@H](CO)C(N)=O [Example 43]	0.375		0.0123	> 957	> 9950	> 9950	35.6		98.7		
CC[C@H](C)[C@H](NC(=O)[C@H](CC(C)C)NC(=O)[C@](C)(Cc1ccc(O)cc1)NC(=O)[C@@H](CCC(=O)O)NC(=O)[C@@H](NC(=O)[C@H](Cc1ccccc1)NC(=O)[C@H](CCC(=O)O)NC(=O)C(C)(C)NC(=O)[C@H](CCC(N)=O)NC(=O)[C@H](C)NC(=O)[C@H](CCCCNC(=O)COCCOCCNC(=O)COCCOCCNC(=O)CC[C@H](NC(=O)CCCCCCCCCCCCC(=O)O)C(=O)O)NC(=O)[C@H](CCCN)NC(=O)[C@H](CC(=O)O)NC(=O)[C@H](CC(C)C)NC(=O)[C@](C)(CC(C)C)NC(=O)[C@@H](NC(=O)[C@H](CO)NC(=O)[C@H](Cc1ccncc1)NC(=O)[C@H](CC(=O)O)NC(=O)[C@H](CO)NC(=O)[C@@H](NC(=O)[C@](C)(Cc1ccccc1)NC(=O)[C@@H](NC(=O)CNC(=O)[C@H](CCC(=O)O)NC(=O)C(C)(C)NC(=O)[C@@H](N)Cc1ccc(O)cc1)[C@@H](C)O)[C@@H](C)O)[C@@H](C)CC)[C@@H](C)CC)C(=O)N[C@@H](CCC(=O)O)C(=O)NCC(=O)NCC(=O)N[C@@H](CCCCNC(=O)COCCOCCNC(=O)COCCOCCNC(=O)CC[C@H](NC(=O)CCCCCCCCCCCCC(=O)O)C(=O)O)C(=O)N[C@@H](CO)C(=O)N[C@@H](CO)C(=O)NCC(=O)N[C@@H](C)C(=O)N1CCC[C@H]1C(=O)N1CCC[C@H]1C(=O)N1CCC[C@H]1C(=O)N[C@@H](CO)C(N)=O [Example 44]	1.68	87		> 966	> 9950	> 9950	125		94.5	92.2 ± 6.17	90.9 ± 10.4
CC[C@H](C)[C@H](NC(=O)[C@H](CC(C)C)NC(=O)[C@](C)(Cc1ccc(O)cc1)NC(=O)[C@@H](CCC(=O)O)NC(=O)[C@@H](NC(=O)[C@H](Cc1ccccc1)NC(=O)[C@H](CCC(=O)O)NC(=O)C(C)(C)NC(=O)[C@H](CCC(N)=O)NC(=O)[C@H](C)NC(=O)[C@H](CCCCNC(=O)COCCOCCNC(=O)COCCOCCNC(=O)CC[C@H](NC(=O)CCCCCCCCCCCCC(=O)O)C(=O)O)NC(=O)[C@H](CCCN)NC(=O)[C@H](CC(=O)O)NC(=O)[C@H](CC(C)C)NC(=O)[C@](C)(CC(C)C)NC(=O)[C@@H](NC(=O)[C@H](CO)NC(=O)[C@](C)(Cc1ccccc1)NC(=O)[C@H](CC(=O)O)NC(=O)[C@H](CO)NC(=O)[C@@H](NC(=O)[C@](C)(Cc1ccccc1)NC(=O)[C@@H](NC(=O)CNC(=O)[C@H](CCC(=O)O)NC(=O)C(C)(C)NC(=O)[C@@H](N)Cc1ccc(O)cc1)[C@@H](C)O)[C@@H](C)O)[C@@H](C)CC)[C@@H](C)CC)C(=O)N[C@@H](CCC(=O)O)C(=O)NCC(=O)NCC(=O)N[C@@H](CCCCNC(=O)COCCOCCNC(=O)COCCOCCNC(=O)CC[C@H](NC(=O)CCCCCCCCCCCCC(=O)O)C(=O)O)C(=O)N[C@@H](CO)C(=O)N[C@@H](CO)C(=O)NCC(=O)N[C@@H](C)C(=O)N1CCC[C@H]1C(=O)N1CCC[C@H]1C(=O)N1CCC[C@H]1C(=O)N[C@@H](CO)C(N)=O [Example 45]		72.5		> 966	> 9950	> 9950		9.18	109	91.3 ± 1.04	85.7 ± 8.37
CC[C@H](C)[C@H](NC(=O)[C@H](CC(C)C)NC(=O)[C@](C)(Cc1ccc(O)cc1)NC(=O)[C@@H](CCC(=O)O)NC(=O)[C@@H](NC(=O)[C@H](Cc1ccccc1)NC(=O)[C@H](CCC(=O)O)NC(=O)C(C)(C)NC(=O)[C@H](CCC(N)=O)NC(=O)[C@H](C)NC(=O)[C@H](CCCCNC(=O)COCCOCCNC(=O)COCCOCCNC(=O)CC[C@H](NC(=O)CCCCCCCCCCCCC(=O)O)C(=O)O)NC(=O)[C@H](CCCN)NC(=O)[C@H](CC(=O)O)NC(=O)[C@H](CC(C)C)NC(=O)[C@](C)(Cc1ccccc1)NC(=O)[C@@H](NC(=O)[C@H](CO)NC(=O)[C@H](Cc1ccncc1)NC(=O)[C@H](CC(=O)O)NC(=O)[C@H](CO)NC(=O)[C@@H](NC(=O)[C@](C)(Cc1ccccc1)NC(=O)[C@@H](NC(=O)CNC(=O)[C@H](CCC(=O)O)NC(=O)C(C)(C)NC(=O)[C@@H](N)Cc1ccc(O)cc1)[C@@H](C)O)[C@@H](C)O)[C@@H](C)CC)[C@@H](C)CC)C(=O)N[C@@H](CCC(=O)O)C(=O)NCC(=O)NCC(=O)N[C@@H](CCCCNC(=O)COCCOCCNC(=O)COCCOCCNC(=O)CC[C@H](NC(=O)CCCCCCCCCCCCC(=O)O)C(=O)O)C(=O)N[C@@H](CO)C(=O)N[C@@H](CO)C(=O)NCC(=O)N[C@@H](C)C(=O)N1CCC[C@H]1C(=O)N1CCC[C@H]1C(=O)N1CCC[C@H]1C(=O)N[C@@H](CO)C(N)=O [Example 46]		73.3		> 966	> 9950	> 9950			117	89.5 ± 2.64	79.2 ± 1.23
